Test results reported in patent publication US20260183432A1, “IMAGING AGENTS FOR DETECTING CD206+ MACROPHAGES” (THE GENERAL HOSPITAL CORPORATION, priority 2022, published 2026).
Entries after “also recorded” stand apart in the source; their conditions may differ.

Assays:
[1] = PET imaging of [68]Ga-MannGaFish; conditions: in vivo
[2] = test system: M1 and M2 macrophages differentiated from Raw 264.7 cells; assay: fluorescence imaging of M1- and M2-differentiated macrophages; format: cell-based; conditions: incubated at 37° C.
Method: M1- and M2-differentiated macrophages were incubated with 1/1000 dilution of MR2-cy5 stock solution (10 mM in DMSO) for 1 h at 37° C. and counter-stained with DAPI (4′,6-diamidino-2-phenylindole, Invitrogen). The cells were washed with PBS and fluorescence imaging was captured with a digital microscope (Nikon Eclipse TE2000-U).
M1 and M2 polarized differentiation. Raw 264.7 cells (Passage 8 from the cell core of center for Systems Biology at Massachusetts General Hospital, Boston) in 10 mL petri dishes were cultured with Dulbecco's modified eagle medium with high glucose (DMEM, Thermo Fisher Scientific, NY, USA) containing 10% of fetal bovine serum (FBS, Sigma-Aldrich, MO, USA) and 0.5% streptomycin/penicillin (Cellgro) until reaching 80% of confluency. Then differentiating media containing IFN-gamma (100 ng/ml the above medium) for M1 polarization and IL-4 (100 ng/mL) for M2 polarization were added to the dishes, respectively. After 24 h, the M1 and M2 polarized macrophages were ready for the following experiments.

[3] = test system: CD206+ macrophages; assay: MR imaging in mouse model of cutaneous wound healing; format: in vivo; conditions: for contrast-to-noise ratio (CNR) time course: wildtype mice, day 7 after wound induction
Method: Eight-to nine-week-old C57BL/6J female mice were used for MRI of wound healing and glioma (Jackson Laboratory, ME). The generation of wound healing and glioma is described in Examples 14 and 15, respectively. The mice with subcutaneous wounds were imaged on days 1, 4, and 7 longitudinally or on day 7. Mice with glioma were imaged on the third week. All the mice were imaged pre- and at 0, 15, 30, 45 and 60 min after 0.3 mmol/kg of Mann2-DTPA-Gd or MannGdFish was administered intravenously via a tail vein using serial T1 rapid acquisition with relaxation enhancement (RARE) sequence (TR: 935.77 ms, TE: 13.59 ms, averages: 12, rare factor: 4, 256×256×48 matrix size, 0.156×0.156×1 mm^3 voxel size) with chemical fat suppression using a Hermitian pulse shape with an 8.253 ms pulse and 701.19 Hz bandwidth 3.5 ppm down from the water peak and respiratory gating on a 4.7 T small animal MR scanner (Bruker, Cambridge, MA) with a 3 cm quadrature volume coil (Rapid MR International, Germany). Regions of interest (ROIs) were drawn and the contrast-to-noise ratios (CNRs, CNRpre-contrast subtracted) were calculated by a radiologist with over 20 years of experience blinded to the identity of the imaging agent used and the strain of the mice (n=3 per group).
Wound healing procedure. Seven-to ten-week-old C57BL/6J female mice (The Jackson Laboratories, ME) and mannose-receptor deficient mice were used in this study. A circular outline on the back of a mouse was made with a 4 mm biopsy punch (Kai Medical, Japan) under anesthesia using isoflurane. Then a full-thickness excisional wound was generated that extended through the subcutaneous tissue. A silicone splint was glued over the wound, anchored with 6-0 nylon sutures, and covered with a transparent occlusive dressing (OpSite). Xylazine/norepinephrine (100 μL) were intraperitoneally injected twice a day for two days and the mice were monitored daily.

[4] = in vitro relaxivity (r1), Bruker Minispect; format: physicochemical
Method: Relaxation time (T1) of Mann2-DTPA-Gd/MannGdFish at concentrations of 0.1, 0.2, 0.3, 0.5, 0.6, 0.75, and 1 mM in PBS was measured on the Bruker Minispect (Bruker Analytics, MA) at 0.47 T (20 MHz) at 40° C. The slope value of the linear function of 1/T1 (s) to their corresponding concentrations is defined as the relaxivity (n=3 for each concentration).

[5] = biodistribution and retention by ICP-MS in mice with cutaneous wound; format: in vivo, mouse
Method: (§1) 6-10 weeks old of C57BL/6J mice were administered with MannGdFish intravenously 24 h after the wound injury. At 3 h and on day 7 after induction, mice were sacrificed and major organs including wound skins and the counter skins were harvested (n=3 for each time point). Blood samples were collected before and at different time points after the administration of MannGdFish (n=6) and centrifuged to obtain the plasma. The samples were weighed, treated with nitric acid, and subjected to inductively coupled plasma mass spectrometry (ICP-MS) to determine the amount of gadolinium as described in Example 6.

[6] = test system: RAW 264.7 cells; assay: cytotoxicity, MTT assay; format: cell-based; conditions: n=3
Method: The cytotoxicity of MannGdFish was evaluated using RAW264.7 cells (Passage 8 from the cell core of the Center for Systems Biology at Massachusetts General Hospital, Boston) with an MTT assay as described by Wang et. al (J Med Chem 64, 5874-5885 (2021)) (n=3).

[7] = blood half-life by ICP-MS; format: in vivo, mouse; conditions: two-phase exponential model
Method: as §1

SMILES: O=C([O-])CN1CCN(CC(=O)[O-])CCN(C(CCC(=O)NC(COC2OC(CO)C(O)C(O)C2O)COC2OC(CO)C(O)C(O)C2O)C(=O)[O-])CCN(CC(=O)O)CC1.[68Ga+3] (stereo not drawn) [[68]Ga-MannGaFish]
- uptake in organs on PET imaging [1]: low uptakes in the lungs and heart

SMILES: CC[N+]1=C(/C=C/C=C/C=C2/N(CCCCCC(=O)NC3C(O)OC(CO)C(O)C3O)c3ccc(S(=O)(=O)O)cc3C2(C)C)C(C)(C)c2cc(S(=O)(=O)[O-])ccc21 (stereo not drawn) [MR1-cy5]
- fluorescence signal, M2 versus M1 macrophages (specificity) [2]: low specificity to M2 macrophages

SMILES: CC[N+]1=C(/C=C/C=C/C=C2/N(CCCCCC(=O)NC(COC3OC(CO)C(O)C(O)C3O)COC3OC(CO)C(O)C(O)C3O)c3ccc(S(=O)(=O)O)cc3C2(C)C)C(C)(C)c2cc(S(=O)(=O)[O-])ccc21 (stereo not drawn) [MR2-cy5]
- fluorescence signal, M2 versus M1 macrophages (specificity) [2]: much higher signal from M2 macrophages than that from M1 macrophages; also recorded: much higher signal in M2 macrophages compared to that in M1 macrophages

SMILES: O=C([O-])CN1CCN(CC(=O)[O-])CCN(C(CCC(=O)NC(COC2OC(CO)C(O)C(O)C2O)COC2OC(CO)C(O)C(O)C2O)C(=O)[O-])CCN(CC(=O)O)CC1.[Gd+3] (stereo not drawn) [MannGdFish]
- MR signal compared to DOTA-Gd ([3]; 60 min, wound healing day 7): much higher in comparison with that of DOTA-Gd; also recorded: much higher compared to that of DOTA-Gd
- contrast-to-noise ratio (CNR) time course [3]: slow decrease of CNR
- CNR compared to Mann2-DTPA-Gd ([3]; wildtype wound healing mice, day 7): slightly higher CNRs and similar dynamic profile as that of Mann2-DTPA-Gd; also recorded: slightly higher compared to that of Mann2-DTPA-Gd
- relaxivity (r1) [4]: 5.2 mmol⁻¹ s⁻¹
- gadolinium in wound versus normal skin ([5]; 3 h after administration, wound 24 h post-injury): low and not significantly different compared to that in the normal skin
- major organs containing gadolinium ([5]; 3 h and day 7): liver and spleen being the major organs containing gadolinium
- accumulation or retention of Gd in the body ([5]; 3 h and day 7, ICP-MS): < 0.5 nmol Gd per gram tissue
- gadolinium in wound versus normal skin ([5]; day 7): higher in the wound than that in the normal skin
- cytotoxicity: concentration up to which no cytotoxic effect was observed [6]: > 5 mM
- blood half-life, fast phase [7]: 0.3 min
- blood half-life, slow phase [7]: 6.1 min

SMILES: O=C([O-])CN1CCN(CC(=O)[O-])CCN(CC(=O)O)CCN(CC(=O)[O-])CC1.[Gd+3] [DOTA-Gd, reference compound]
- contrast-to-noise ratio (CNR) time course [3]: decreased significantly 15 min post-injection; also recorded: decreased rapidly after peaking at 15 min post-injection
